Reference: patent US20110100079A1, “METHOD FOR IMPARTING STRESS TOLERANCE TO PLANT” (priority 2007, published 2011)

Columns and labels:
Format in all cases: in vivo
[1] = system: potato; test: Example 9 drying stress test (potato), soil culture; settings: 23° C., 100 ppm, 2 weeks; for Fresh weight, relative value (untreated plot = 100), Test 1 / Fresh weight, relative value (untreated plot = 100), Test 4 / Fresh weight, relative value (untreated plot = 100), Test 2 / Fresh weight, relative value (untreated plot = 100), Test 3: potato soil culture; for Fresh weight, relative value (untreated plot = 100), Test 1: EC 1, pF 2.8, two-leaf stage; for Fresh weight, relative value (untreated plot = 100), Test 4: EC 1, pF 3.5, five-leaf stage; for Fresh weight, relative value (untreated plot = 100), Test 2: EC 1, pF 3.5, two-leaf stage; for Fresh weight, relative value (untreated plot = 100), Test 3: EC 1, pF 4.1, two-leaf stage; for Fresh weight, relative value (untreated plot = 100), Comparison 1: stress-free: potato soil culture, EC 1, pF 1.7, two-leaf stage
Procedure: (§1) The environmental conditions in a climatic chamber were controlled so as to have a temperature of 23° C., an illuminance by a fluorescent light of 5000 Lux, and a daily light-dark cycle of a 16-hour light period and an 8-hour dark period. Potatoes as prepared above were transplanted in size-5 (15 cm) pots. During the test period, the pF value was controlled by adding a suitable amount of tap water once a day so as to attain a specific drying stress value. A treatment solution containing a compound of Table 5 in a specific concentration (the remainder was water) was prepared and sprayed onto the leaves or applied to the underground portions. […] A comparative example was constructed to reflect the drying stress-free optimum cultivation conditions to investigate the plant energizing ability. […] Moreover, when the products of the present invention and the comparative products were compared, the stress tolerance imparting ability of the products of the present invention was higher in respective drying stress conditions.

[2] = system: tomato; test: Example 7 drying stress test (tomato), soil culture; settings: 23° C., 100 ppm, 2 weeks; for Fresh weight, relative value (untreated plot = 100), Comparison 1: stress-free: tomato soil culture, EC 1, pF 1.7, two-leaf stage; for Fresh weight, relative value (untreated plot = 100), Test 1 / Fresh weight, relative value (untreated plot = 100), Test 4 / Fresh weight, relative value (untreated plot = 100), Test 2 / Fresh weight, relative value (untreated plot = 100), Test 3: tomato soil culture; for Fresh weight, relative value (untreated plot = 100), Test 1: EC 1, pF 2.8, two-leaf stage; for Fresh weight, relative value (untreated plot = 100), Test 4: EC 1, pF 3.5, five-leaf stage; for Fresh weight, relative value (untreated plot = 100), Test 2: EC 1, pF 3.5, two-leaf stage; for Fresh weight, relative value (untreated plot = 100), Test 3: EC 1, pF 4.1, two-leaf stage
Procedure: as §1, with “period. Tomatoes” for “period. Potatoes”, “in size-3 (9” for “in size-5 (15”, “Table 1” for “Table 5”

[3] = system: “Momotaro” tomato; test: Example 2 temperature stress tolerance imparting test (tomato); settings: leaf, 100 ppm, 2 weeks
Procedure: Other cultivation conditions were the same as the conditions of the temperature stress test. […] (2) Solution culture medium: […] Method of Temperature Stress Tolerance Imparting Test The temperature in a climatic chamber was controlled so as to be 10, 15, or 32° C. The environmental conditions were controlled so as to have an illuminance by a fluorescent light of 5000 Lux and a daily light-dark cycle of a 16-hour light period and a 8-hour dark period. In this test, a temperature of 23° C. at which the optimum growth was observed was regarded as a reference temperature (temperature stress-free test condition), and a stress was imposed by applying a temperature higher or lower than the reference temperature. A tomato as prepared above was planted in a 250 ml polyethylene bottle filled with the solution culture medium (½ Otsuka A formulation). A treatment solution as presented in Table 1 was sprayed onto the leaves or applied to the underground portion. […] Ten specimens were prepared for each of the test plot and the control plots, and a plant stress level and an extent of imparting plant stress tolerance were calculated according to Formula (ii) and (iii) above using as a fresh plant body weight the average of the fresh plant body weights of each specimen 2 weeks after the beginning of the test.

[4] = system: “Momotaro” tomato; test: Example 3 drying stress tolerance imparting test (tomato); settings: 100 ppm once a week, 3 weeks
Procedure: Other cultivation conditions were as with the conditions of the drying stress test. Drying stress conditions: soil pF value: 2.3, 2.5, or 2.9, cultivation temperature: 23° C., relative humidity: 50%, illuminance: 5000 Lux (fluorescent light), light/dark cycle: 16 hours/8 hours (2) Cultivation period: 3 weeks (3) Soil: Kureha gardening soil manufactured by Kureha Corporation (fertilizer components: N:P:K=0.4:1.9:0.6 g/kg soil) (4) Plant preparation: A 50-cell tray was filled with Kureha gardening soil manufactured by Kureha Corporation (fertilizer components: N:P:K=0.4:1.9:0.6 g/kg soil), and seeds of a “Momotaro” tomato were sowed, thinly covered with Kureha gardening soil, and sufficiently watered to allow the seeds to sprout. When the leaves in the 2-leaf stage fully unfolded, the soil on the tomato roots was carefully washed away with running water, and a test was performed. (5) The chemicals used and the amount of a treatment solution applied were as in Example 1. (6) Amount of treatment solution applied: 10 ml/specimen for leaf spraying, 50 ml/specimen for fertigation Method of Drying Stress Tolerance Imparting Test Five tomato specimens as prepared above were planted in a 60-cm planter placed on a plant culture rack in an air-conditioned room. […] From immediately after planting the tomatoes, a treatment solution of Table 1 was sprayed onto the leaves or applied to the underground portions once a week. […] Five specimens (per planter) were prepared for each of the test plot and the control plots, plant bodies were collected 3 weeks after the beginning of the test such that the roots were not cut, the soil was washed away with running water, the fresh plant body-weights were measured, and a plant stress level and an extent of imparting plant stress tolerance were calculated according to Formula (ii) and (iii) above using the average of the weights.

[5] = system: tomato; test: Example 8 temperature stress test (tomato), soil culture; settings: 100 ppm, 2 weeks; for Fresh weight, relative value (untreated plot = 100), Comparison 1: stress-free: tomato soil culture, cultivation temperature 23, EC 1, pF 1.7, two-leaf stage; for Fresh weight, relative value (untreated plot = 100), Test 1 / Fresh weight, relative value (untreated plot = 100), Test 2 / Fresh weight, relative value (untreated plot = 100), Test 3 / Fresh weight, relative value (untreated plot = 100), Test 4: tomato soil culture; for Fresh weight, relative value (untreated plot = 100), Test 1: cultivation temperature 10, EC 1, pF 1.7, two-leaf stage; for Fresh weight, relative value (untreated plot = 100), Test 2: cultivation temperature 16, EC 1, pF 1.7, two-leaf stage; for Fresh weight, relative value (untreated plot = 100), Test 3: cultivation temperature 29, EC 1, pF 1.7, two-leaf stage; for Fresh weight, relative value (untreated plot = 100), Test 4: cultivation temperature 35, EC 1, pF 1.7, two-leaf stage
Procedure: Other Conditions were as in Example 5. The environmental conditions in a climatic chamber were controlled so as to have an illuminance by a fluorescent light of 5000 Lux, a daily light-dark cycle of a 16-hour light period and an 8-hour dark period, and various temperatures. Tomatoes as prepared above were transplanted in size-3 (9 cm) pots. A treatment solution containing a compound of Table 1 in a specific concentration (the remainder was water) was prepared and sprayed onto the leaves or applied to the underground portions. […] A comparative example was constructed to reflect the temperature stress-free optimum cultivation conditions to investigate the plant energizing ability. […] Moreover, when the products of the present invention and the comparative products were compared, the stress tolerance imparting ability of the products of the present invention was higher in respective temperature stress conditions.

Row | Compound | Fresh weight, relative value (untreated plot = 100), Test 1 ([1]; leaf) | Fresh weight, relative value (untreated plot = 100), Test 4 ([1]; leaf) | Fresh weight, relative value (untreated plot = 100), Test 2 ([1]; leaf) | Fresh weight, relative value (untreated plot = 100), Test 3 ([1]; leaf) | Fresh weight, relative value (untreated plot = 100), Comparison 1 ([1]; leaf) | Fresh weight, relative value (untreated plot = 100), Comparison 1 ([2]; leaf) | Fresh weight, relative value (untreated plot = 100), Test 1 ([2]; leaf) | Fresh weight, relative value (untreated plot = 100), Test 4 ([2]; leaf) | Fresh weight, relative value (untreated plot = 100), Test 2 ([2]; leaf) | Fresh weight, relative value (untreated plot = 100), Test 3 ([2]; leaf) | Extent of imparting plant stress tolerance ([3]; 32° C.) [%] | Extent of imparting plant stress tolerance ([4]; pF 2.3, leaf) [%] | Fresh weight, relative value (untreated plot = 100), Comparison 1 ([5]; leaf) | Fresh weight, relative value (untreated plot = 100), Test 1 ([5]; leaf) | Fresh weight, relative value (untreated plot = 100), Test 2 ([5]; leaf) | Fresh weight, relative value (untreated plot = 100), Test 3 ([5]; leaf) | Fresh weight, relative value (untreated plot = 100), Test 4 ([5]; leaf) | further results
1 | Sucrose fatty acid ester (C18, HLB = 15) [Product of present invention 20] | 118 | 128 | 135 | 118 | 102 | 103 | 119 | 136 | 139 | 124 | 115 | 117 | 102 | 114 | 116 | 133 | 122 | 
2 | O=C(O)[C@@H]1CCCN1 [Comparative product 2, Proline, reference compound] | 102 | 101 | 102 | 101 | 101 | 101 | 102 | 101 | 102 | 101 | 102 | 103 | 101 | 100 | 100 | 101 | 101 | Fresh weight, relative value (untreated plot = 100), Test 1 ([1]; underground portion): 102; Fresh weight, relative value (untreated plot = 100), Test 4 ([1]; underground portion): 100; Fresh weight, relative value (untreated plot = 100), Test 2 ([1]; underground portion): 102; Fresh weight, relative value (untreated plot = 100), Test 3 ([1]; underground portion): 101; Fresh weight, relative value (untreated plot = 100), Comparison 1 ([1]; underground portion): 102; Fresh weight, relative value (untreated plot = 100), Comparison 1 ([2]; underground portion): 102; Fresh weight, relative value (untreated plot = 100), Test 1 ([2]; underground portion): 102; Fresh weight, relative value (untreated plot = 100), Test 4 ([2]; underground portion): 100; Fresh weight, relative value (untreated plot = 100), Test 2 ([2]; underground portion): 103; Fresh weight, relative value (untreated plot = 100), Test 3 ([2]; underground portion): 101; Extent of imparting plant stress tolerance ([3]; 10° C.): 102%; Extent of imparting plant stress tolerance ([3]; 15° C.): 102%; Extent of imparting plant stress tolerance ([4]; pF 2.5, leaf): 102%; Extent of imparting plant stress tolerance ([4]; pF 2.9, leaf): 103%; Fresh weight, relative value (untreated plot = 100), Comparison 1 ([5]; underground portion): 102; Fresh weight, relative value (untreated plot = 100), Test 1 ([5]; underground portion): 100; Fresh weight, relative value (untreated plot = 100), Test 2 ([5]; underground portion): 100; Fresh weight, relative value (untreated plot = 100), Test 3 ([5]; underground portion): 101; Fresh weight, relative value (untreated plot = 100), Test 4 ([5]; underground portion): 100
